Reference: patent US20090209503A1, “COLONIC DELIVERY THERAPEUTIC AGENTS FOR INFLAMMATORY BOWEL DISEASE” (AJINOMOTO CO. INC., priority 2005, published 2009)
Several values for one entry are separate records, joined by “and”; a condition that tells them apart may be missing. Identical values can stand only once.

Legend:
[1] = test system: epithelial injuries in the upper digestive tracts such as the stomach and the duodenum; details: dose of about 2 g a day; Non-patent Literatures 8 and 9; cited from earlier work
[2] = test system: rat models of TNBS; details: 0.25 to 0.4 g/kg via the large intestinal route; Non-patent Literatures 13 and 14; cited from earlier work
[3] = test system: patients with ulcerative colitis; assay: Comparative Example 1: 10 g L-glutamine via the large intestinal route, frequencies of bowel movements and diarrhea; type: in vivo, humans
Protocol: 10 g of L-glutamine was added to 60 mL of “Predonema®” Enema, and the mixture was administered via the large intestinal route to patients with ulcerative colitis. The frequencies of bowel movements and diarrhea were measured. […] Meanwhile, the patients were treated with “Predonema®” from Day 1 to Day 14, and 60 mL of “Predonema®” Enema prepared by adding 10 g of L-glutamine thereto was administered via the large intestinal route to the patients from Day 15 to Day 28.

[4] = test system: DSS model in mice (ulcerative colitis developed by 5% DSS water); assay: Drug efficacy test by enema administration of glutamine on DSS model in mice; type: in vivo, mouse; details: sixth day after start of drinking DSS water, FIG. 1
Protocol: 5% DSS water (dissolving dextran sulfate sodium in tap water) was drank ad lib by a male C57BL/6 Cr Slc mouse of 8 weeks old, and it developed ulcerative colitis. From one day before starting drinking of DSS water, L-glutamine was administered via the large intestinal route to the mouse once a day. An enema agent (solution) having the composition of 0.5% (w/v) carboxymethylcellulose—sodium was used as the enema agent. As the disease activity index, each average value of body weight scores, blood feces scores and diarrhea scores was calculated referring to the report of HS. Cooper et al. (Laboratory Investigation 1993; 69(2): 238).

[5] = test system: patients with ulcerative colitis; assay: Example 1: 2 g L-glutamine enema, frequencies of bowel movements and diarrhea, blood feces scores; type: in vivo, humans; set-up: key to Blood feces score, Aft. admin.: blood feces score averaged per day: 0 = none, 1 = less, 3 = a lot
Protocol: Further, 60 mL of an enema agent prepared by adding 2 g of L-glutamine to sterilized water was administered via the large intestinal route to the patients with ulcerative colitis having the same symptoms as mentioned above (Case Nos. 5 and 9 to 14).
In addition, the patients with ulcerative colitis of Comparative Example and Example take a 5-ASA agent(s) (“Pentasas” or “Salazopyrin®”) as an oral agent conforming to dosage and administration.
The frequencies of bowel movements and diarrhea, and blood feces scores were measured of these patients.

[6] = 2 g L-glutamine enema, with or without Predonema
[7] = 2 g L-glutamine enema, oral 5-ASA agent

In the case of `NC(=O)CC[C@H](N)C(=O)O` [Gln, L-glutamine], the “effectiveness against epithelial injuries in the upper digestive tracts” value [1] is given as “effective”, the “effectiveness in animal enteritis models” value [2] is given as “effective” and the “frequency of bowel movements” value ([3]; 10 g L-glutamine added to 60 mL Predonema Enema, Day 15 to Day 28, after Predonema alone Day 1 to Day 14, oral 5-ASA agent, FIG. 2) is given as “increased”. The “blood feces (observation of feces)” value ([3]; 10 g L-glutamine added to 60 mL Predonema Enema, Day 15 to Day 28, oral 5-ASA agent) was “improving effect of blood feces was recognized”, the “frequency of bowel movements” value ([3]; 10 g of L-glutamine via the large intestinal route to humans) was “frequency of bowel movements increases” and the “disease activity index (average of body weight, blood feces and diarrhea scores) versus vehicle-treated group” value ([4]; 30 mg/kg once a day via the large intestinal route) was “no significant difference”. The “disease activity index (average of body weight, blood feces and diarrhea scores) versus vehicle-treated group” value ([4]; 100 mg/kg once a day via the large intestinal route) was “no significant difference”, the “frequency of bowel movements (summary of Table 1)” value [5, 6] was “maintained the frequency of bowel movements” and the “improvement in blood feces (summary of Table 1)” value [5, 6] was “improvement in blood feces was recognized in all cases”. For the same molecule, the “diarrhea (summary of Table 1)” value ([5]; 2 g L-glutamine enema, as shown in Case Nos. 4 and 5) was “able to improve diarrhea”, the “cases in which the blood feces improved” value [5, 7] was 3 out of 7 and the “improvement rate (blood feces)” value [5, 7] was 43%. For the same molecule, the “Blood feces score, Aft. admin.” value ([5]; 2 g L-glutamine in 60 mL enema, admin. period 14-39 per case, oral 5-ASA agent, single patient, average per day, no blood feces: 0, less: 1, a lot: 3) was 1.3 and 1.0 (2×) and 0.8 and 0.9, the “Freq. of bowel movement, Aft. admin.” value ([5]; 2 g L-glutamine in 60 mL enema, large intestinal route, admin. period 14-39 per case, all with oral 5-ASA agent, single patient) was 5.0 per a day and 5.3 per a day and 2.3 per a day and 13.9 per a day and 14.1 per a day and the “freq. of diarrhea, Aft. admin.” value ([5]; 2 g L-glutamine in 60 mL enema, large intestinal route, admin. period 14-39 per case, all with oral 5-ASA agent, single patient, number in ( )) was 0.1 per a day and 0.4 per a day and 0.0 per a day (2×) and 2.6 per a day. The “course of administration (stopped for aggravation of symptoms after starting administration)” value ([5]; 2 g L-glutamine in 60 mL sterilized water enema, oral 5-ASA agent, single patient) was “Stopped for aggravation”, the “Freq. of bowel movement, Bef. admin.” value ([5]; baseline before administration, single patient (Case No.), average value per day of the period) was 4.5 per a day and 5.4 per a day and 2.5 per a day and 4.2 per a day and 6.7 per a day and the “freq. of diarrhea, Bef. admin.” value ([5]; baseline before administration, single patient (Case No.), number in ( )) was 2.0 per a day and 0.9 per a day and 0.0 per a day (2×) and 1.5 per a day. For the same molecule, the “Blood feces score, Bef. admin.” value ([5]; baseline before administration, single patient, average per day, no blood feces: 0, less: 1, a lot: 3) was 2.2 and 1.3 (2×) and 0.8 and 1.0.
